Source: patent publication US20250206745A1, “PYRROLOPYRIDAZINE DERIVATIVES AND RELATED USES” (NodThera Limited, priority 2023, published 2025)
Counter-ions that a name gives are not always drawn.

Key:
[1] = system: IL-1β release upon NLRP3 activation in peripheral blood mononuclear cells (PBMC); test: PBMC IC50 Determination Assay; type: cell-based; settings: Homo sapiens; inhibition of IL-1β release; PBMC primed with LPS, stimulated with ATP or nigericin; ELISA or HTRF
Method: The compounds of the present disclosure were tested for their inhibitory activity against IL-1β release upon NLRP3 activation in peripheral blood mononuclear cells (PBMC).
Protocol A. PBMC were isolated from buffy coats by density gradient centrifugation on Histopaque-1077 (Sigma, cat no. 10771). Isolated cells were seeded into the wells of a 96-well plate and incubated for 3 h with lipopolysaccharide (LPS). Following medium exchange, the compounds of the present disclosure were added (a single compound per well) and the cells were incubated for 30 min. Next, the cells were stimulated either with ATP (5 mM) or nigericin (10 μM) for 1 h and the cell culture media from the wells were collected for further analysis.
The release of IL-1β into the media was determined by a quantitative detection of IL-1β in the media using an IL-1β enzyme-linked immunosorbent assay (ELISA) Ready-SET-Go!, eBioscience cat. No. 88-7261-88. Briefly, in a first step, high affinity binding plates (Corning, Costar 9018 or NUNC Maxisorp Cat No. 44-2404) were coated overnight at 4° C. with specific capture antibody included in the kit (anti-human IL-1β ref. 14-7018-68). Subsequently, plates were blocked with blocking buffer for 1 h at room temperature (rt) and after washing with a buffer (PBS with 0.05% Tween-20) incubated with protein standard and culture media. After 2 h of incubation at rt, plates were washed and incubated with biotinylated detection antibody included in the kit (anti-human IL-1β Biotin ref. 33-7110-68) for 1 h at rt. Plates were washed and incubated with HRP-streptavidin for 30 min at rt and washed again. The signal was developed after addition of 3,3′,5,5′-tetramethylbenzidine-peroxidase (TMB) until colour appeared and the reaction was stopped by 2 M H2SO4. A microplate spectrophotometer (BioTek) was used to detect signals with 450 nm. The detection range of IL-1β ELISA was […].
Protocol B. PBMC were isolated from buffy coats by density gradient centrifugation on Histopaque-1077 (Sigma, cat no. 10771). Isolated cells were seeded into the wells (280,000 cells/well) of a 96-well plate and incubated for 3 h with lipopolysaccharide (LPS, 1 μg/mL diluted 1000× from a 1 mg/mL stock solution). The compounds of the present disclosure were added (a single compound per well) and the cells were incubated for 30 min. Next, the cells were stimulated with ATP (5 mM final concentration diluted 20× from a 100 mM stock solution) for 1 h and the cell culture media from the wells were collected for further analysis.
The release of IL-1β into the media was determined by quantitative detection of IL-1β in the media using HTRF®, CisBio cat. No. 62HIL1BPEH. Briefly, cell culture supernatant were dispensed directly into the assay plate containing antibodies labelled with the HTRF® donor and acceptor. A microplate spectrophotometer (BMG) was used to detect signals at 655 nm and 620 nm. The detection range of IL-1β HTRF® was 39-6500 pg/mL.

[2] = system: IL-1β release upon NLRP3 activation in phorbol 12-myristate 13-acetate (PMA)-differentiated THP-1 cells; test: THP-1 IC50 Determination Assay; type: cell-based; settings: Homo sapiens, inhibition of IL-1β release, LPS, nigericin, ELISA
Method: The compounds of the present disclosure were tested for their inhibitory activity against IL-1β release upon NLRP3 activation in phorbol 12-myristate 13-acetate (PMA)-differentiated THP-1 cells.
THP-1 cells stored in liquid nitrogen were thawed in a 37° C. water bath. The cells were added into complete RPMI 1640 medium (FBS (56 mL), 100× Penicillin-Streptomycin (5.6 mL) and 0.05 mM 2-Mercaptoethanol in RPMI 1640 Medium (500 mL)) and centrifuged for 5 min at 1000 rpm. The supernatant was discarded and the cells resuspended into new cell culture medium for culturing. Cells were cultured in cell culture medium and passaged every 3-4 days to maintain cell density between 4×10^5 and 1.5×10^6 cells/mL. The cells were diluted to 0.8×10^6 cells/mL and grown in a T150 flask with PMA (final concentration 5 ng/mL). The flask was incubated in a 37° C. incubator with a humidified atmosphere of 5% CO2 for −40 hours. After −40 hours of PMA differentiation, the flask was washed with DPBS. Cells were digested with Trypsin LE for about 5 min at room temperature, and digestion was terminated using complete RPMI 1640 medium. Cells were centrifuged and resuspended (1000 rpm, 3 min). The supernatant was discarded and cells washed with DPBS, centrifuged and resuspended cells (1000 rpm, 5 min). Cells were plated at 30,000 cells/well in a 384-well PP plate and treated with 25 ng/mL LPS solution diluted in serum-free medium (45 μL). The plate was incubated in a 37° C. incubator with a humidified atmosphere of 5% CO2 for 2 hours. Compounds (from 10 mM DMSO solution) were dispensed and serially diluted by 1:3 eight times, with final 0.5% DMSO concentration. NLRP3 inflammasome was activated with nigericin (5 μL), the plate was centrifuged (1000 rpm, 30 s) and incubated in a 37° C. incubator with a humidified atmosphere of […] for 2 hours. 35 μL/well of supernatant was removed and IL-1β levels determined by ELISA assay (Mabtech 3416-1H-20) according to the manufacturer's instructions.

IC50 [2] [nM]	SMILES	IC50 [1] [nM]
100 to 300	Cc1cc(Cl)cc(O)c1-c1cc2ccn(C[C@@H]3CCN(C)C[C@@H]3F)c2nn1 (relative stereo) [Compound 24, Cis-5-chloro-2-{7-[(3-fluoro-1-methylpiperidin-4-yl)methyl]-7H-pyrrolo[2,3-c]pyridazin-3-yl}-3-methylphenol]	30 to 100
1000 to 3000	Cc1cc(Cl)cc(O)c1-c1cc2ccn(C[C@@H]3CCN(C)C[C@H]3F)c2nn1 (relative stereo) [Compound 51, Trans-5-chloro-2-{7-[(3-fluoro-1-methylpiperidin-4-yl)methyl]-7H-pyrrolo[2,3-c]pyridazin-3-yl}-3-methylphenol hydrochloride]	100 to 300
300 to 1000	Cc1cc(C(F)(F)F)cc(O)c1-c1cc2ccn(CC3CCOCC3)c2nn1 [Compound 1, 3-Methyl-2-{7-[(oxan-4-yl)methyl]-7H-pyrrolo[2,3-c]pyridazin-3-yl}-5-(trifluoromethyl)phenol]	100 to 300
100 to 300	Cc1cc(C(F)(F)F)cc(O)c1-c1cc2ccn(CC3CCCO3)c2nn1 (stereo not drawn) [Compound 2, 3-Methyl-2-{7-[(oxolan-2-yl)methyl]-7H-pyrrolo[2,3-c]pyridazin-3-yl}-5-(trifluoromethyl)phenol]	300 to 1000
100 to 300	Cc1cc(C(F)(F)F)cc(O)c1-c1cc2ccn(CC3CCOC3)c2nn1 (stereo not drawn) [Compound 3, 3-Methyl-2-{7-[(oxolan-3-yl)methyl]-7H-pyrrolo[2,3-c]pyridazin-3-yl}-5-(trifluoromethyl)phenol]	100 to 300
30 to 100	Cc1cc(C(F)(F)F)cc(O)c1-c1cc2ccn(CC3CCN(C)CC3)c2nn1 [Compound 4, 3-Methyl-2-{7-[(1-methylpiperidin-4-yl)methyl]-7H-pyrrolo[2,3-c]pyridazin-3-yl}-5-(trifluoromethyl)phenol]	30 to 100
300 to 1000	Cc1cc(C(F)(F)F)cc(O)c1-c1cc2cc[nH]c2nn1 [Compound 5, 3-Methyl-2-{7H-pyrrolo[2,3-c]pyridazin-3-yl}-5-(trifluoromethyl)phenol]	300 to 1000
300 to 1000	Cc1cc(C(F)(F)F)cc(O)c1-c1cc2ccn(C)c2nn1 [Compound 6, 3-Methyl-2-{7-methyl-7H-pyrrolo[2,3-c]pyridazin-3-yl}-5-(trifluoromethyl)phenol]	300 to 1000
300 to 1000	Cc1cc(Cl)cc(O)c1-c1cc2ccn(CC3CCN(CC(F)(F)F)CC3)c2nn1 [Compound 7, 5-Chloro-3-methyl-2-(7-{[1-(2,2,2-trifluoroethyl)piperidin-4-yl]methyl}-7H-pyrrolo[2,3-c]pyridazin-3-yl)phenol]	300 to 1000
100 to 300	Cc1cc(Cl)cc(O)c1-c1cc2ccn(CC3CCCN(C)C3)c2nn1 (stereo not drawn) [Compound 8, 5-Chloro-3-methyl-2-{7-[(1-methylpiperidin-3-yl)methyl]-7H-pyrrolo[2,3-c]pyridazin-3-yl}phenol]	30 to 100
30 to 100	CC(=O)N1CCC(Cn2ccc3cc(-c4c(C)cc(Cl)cc4O)nnc32)CC1 [Compound 9, 1-(4-{[3-(4-Chloro-2-hydroxy-6-methylphenyl)-7H-pyrrolo[2,3-c]pyridazin-7-yl]methyl}piperidin-1-yl)ethan-1-one]	30 to 100
100 to 300	Cc1cc(Cl)cc(O)c1-c1cc2ccn(CC(=O)N(C)[C@@H]3CCOC3)c2nn1 [Compound 60, 2-[3-(4-Chloro-2-hydroxy-6-methylphenyl)-7H-pyrrolo[2,3-c]pyridazin-7-yl]-N-methyl-N-[(3R)-oxolan-3-yl]acetamide]	
100 to 300	Cc1cc(Cl)cc(O)c1-c1cc2ccn(CC(=O)N(C)[C@H]3CCN(C)C3)c2nn1 [Compound 61, 2-[3-(4-Chloro-2-hydroxy-6-methylphenyl)-7H-pyrrolo[2,3-c]pyridazin-7-yl]-N-methyl-N-[(3S)-1-methylpyrrolidin-3-yl]acetamide hydrochloride]	
300 to 1000	Cc1cc(Cl)cc(O)c1-c1cc2ccn(CC(=O)N(C)[C@@H]3CCN(C)C3)c2nn1 [Compound 62, 2-[3-(4-Chloro-2-hydroxy-6-methylphenyl)-7H-pyrrolo[2,3-c]pyridazin-7-yl]-N-methyl-N-[(3R)-1-methylpyrrolidin-3-yl]acetamide hydrochloride]	
100 to 300	Cc1cc(Cl)cc(O)c1-c1cc2ccn(CC3CC(=O)N(C)C3)c2nn1 (stereo not drawn) [Compound 64, 4-{[3-(4-Chloro-2-hydroxy-6-methylphenyl)-7H-pyrrolo[2,3-c]pyridazin-7-yl]methyl}-1-methylpyrrolidin-2-one]	
300 to 1000	Cc1cc(Cl)cc(O)c1-c1cc2ccn(CC3CCN(C)C3=O)c2nn1 (stereo not drawn) [Compound 66, 3-{[3-(4-Chloro-2-hydroxy-6-methylphenyl)-7H-pyrrolo[2,3-c]pyridazin-7-yl]methyl}-1-methylpyrrolidin-2-one]	
300 to 1000	Cc1cc(Cl)cc(O)c1-c1cc2ccn(C3CCN(C)CC3)c2nn1 [Compound 67, 5-Chloro-3-methyl-2-[7-(1-methylpiperidin-4-yl)-7H-pyrrolo[2,3-c]pyridazin-3-yl]phenol]	
3000 to 10000	CN1CCC(Cn2ccc3cc(-c4ccc(C#N)cc4O)nnc32)CC1 [Compound 68, 3-Hydroxy-4-{7-[(1-methylpiperidin-4-yl)methyl]-7H-pyrrolo[2,3-c]pyridazin-3-yl}benzonitrile]	
300 to 1000	Cc1cc(Cl)cc(O)c1-c1cc2ccn([C@@H]3CCN(C)C3=O)c2nn1 [Compound 69, (3R)-3-[3-(4-Chloro-2-hydroxy-6-methylphenyl)-7H-pyrrolo[2,3-c]pyridazin-7-yl]-1-methylpyrrolidin-2-one]	
100 to 300	Cc1cc(Cl)cc(O)c1-c1cc2ccn(CC3CCC(=O)N(C)C3)c2nn1 (stereo not drawn) [Compound 70, 5-{[3-(4-Chloro-2-hydroxy-6-methylphenyl)-7H-pyrrolo[2,3-c]pyridazin-7-yl]methyl}-1-methylpiperidin-2-one]	
30 to 100	Cc1cc(Cl)cc(O)c1-c1cc2ncn(C[C@@H]3CCCN(C)C3)c2nn1 [Compound 79, 5-Chloro-3-methyl-2-(7-{[(3R)-1-methylpiperidin-3-yl]methyl}-7H-imidazo[4,5-c]pyridazin-3-yl)phenol hydrochloride]	
100 to 300	Cc1cc(Cl)cc(O)c1-c1cc2ncn(C[C@H]3CCCN(C)C3)c2nn1 [Compound 80, 5-Chloro-3-methyl-2-(7-{[(3S)-1-methylpiperidin-3-yl]methyl}-7H-imidazo[4,5-c]pyridazin-3-yl)phenol hydrochloride]	
